This is an account of results in patent publication US20240124410A1, “SMALL MOLECULES AND THEIR USE AS MALT1 INHIBITORS” (University of Pittsburgh - Of the Commonwealth System of …, priority 2021, published 2024).

The experiment has as its target T1, BCL10-MALT1 interaction (Homo sapiens, UniProt Q9UDY8).
T1 construct: analyte a purified recombinant MALT1 fragment (DD+Ig1-2, Sumo-tagged Ig1-2 or GB-tagged DD)
T1 sequence (Q9UDY8 1-824): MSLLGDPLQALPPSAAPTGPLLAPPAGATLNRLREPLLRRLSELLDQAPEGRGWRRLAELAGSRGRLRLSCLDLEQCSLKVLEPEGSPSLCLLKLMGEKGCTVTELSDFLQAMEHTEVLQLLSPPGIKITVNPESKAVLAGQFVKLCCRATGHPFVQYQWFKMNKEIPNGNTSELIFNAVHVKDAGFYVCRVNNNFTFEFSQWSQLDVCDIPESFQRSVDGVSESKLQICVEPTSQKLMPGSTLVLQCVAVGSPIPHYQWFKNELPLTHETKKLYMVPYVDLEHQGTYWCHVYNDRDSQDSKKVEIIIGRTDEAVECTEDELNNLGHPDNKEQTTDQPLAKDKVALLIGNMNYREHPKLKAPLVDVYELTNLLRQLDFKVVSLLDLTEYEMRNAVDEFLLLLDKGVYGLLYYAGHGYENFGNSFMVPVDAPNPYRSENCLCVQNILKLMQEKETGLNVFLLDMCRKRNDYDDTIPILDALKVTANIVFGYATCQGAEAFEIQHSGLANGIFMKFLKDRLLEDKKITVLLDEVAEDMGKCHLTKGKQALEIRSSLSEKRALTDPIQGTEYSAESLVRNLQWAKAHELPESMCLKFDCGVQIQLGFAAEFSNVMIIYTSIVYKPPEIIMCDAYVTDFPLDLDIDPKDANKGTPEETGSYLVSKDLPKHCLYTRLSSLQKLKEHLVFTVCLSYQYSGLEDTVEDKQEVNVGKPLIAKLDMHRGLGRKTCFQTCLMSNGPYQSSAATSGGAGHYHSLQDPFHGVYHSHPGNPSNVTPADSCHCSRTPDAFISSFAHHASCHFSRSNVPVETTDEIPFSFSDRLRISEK
T1 sequence (O95999 1-233 partner): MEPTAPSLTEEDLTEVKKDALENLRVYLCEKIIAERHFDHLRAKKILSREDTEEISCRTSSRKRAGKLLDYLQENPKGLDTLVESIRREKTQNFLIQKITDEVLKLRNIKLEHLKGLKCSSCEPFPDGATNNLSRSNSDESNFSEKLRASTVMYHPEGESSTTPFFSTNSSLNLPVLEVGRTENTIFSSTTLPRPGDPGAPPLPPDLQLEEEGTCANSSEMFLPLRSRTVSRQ
As to the kind of experiment: SPR analysis of disruption of the BCL10-MALT1 interaction, dose-response (FIG. 2E); Biacore 2000, full-length Bcl10 (GST-tagged recombinant human, Abnova H00008915-P01) immobilized on sensor chip, MALT1 protein passed over. Format: binding. The source says:
FIG. 2. In silico screening identifies small molecules targeting the predicted BCL10-binding groove within MALT1 (Ig1-2). (A) We performed a structure-guided in silico screen of 3 million compounds, using the LibDock program from Discovery Studio 3.5, in order to identify candidate molecules that could potentially fit within the identified groove in the MALT1 Ig1-2 domain. Lipinski's rule of five filters (LipinskiRo5) were applied to enrich for compounds with drug-like properties. Potential compound hits were then screened for their ability to disrupt the MALT1-BCL10 interaction using SPR analysis. 9 candidate compounds were then subjected to a second, ELISA-based MALT1-BCL10 interaction assay, identifying 2 compounds that could disrupt the interaction in both SPR and ELISA assays. M1i-124 and M1i-1255 are the two compounds identified to disrupt the BCL10-MALT1 interaction. […]
The LibDock program from Discovery Studio 3.5 was used to perform a structure-guided in silico screen of 3 million compounds to identify candidate molecules that could potentially fit within the identified groove of MALT1 Igl-Ig2 domain, found to be critical for BCL10-MALT1 interaction. […] Top hits were further evaluated for their potential to disrupt the BCL10-MALT1 interaction through secondary SPR and ELISA-based assays as described below. […]

Molecules are shown by their SMILES.

Usually IC50 stands for the concentration that inhibits the measured activity by half. For the compound `O=S(=O)(NCc1ccc2c(c1)OCO2)c1ccc(Cc2ccc(S(=O)(=O)NCc3ccc4c(c3)OCO4)cc2)cc1` [M1i-124], the IC50 stood at 22 µM.
